The text below walks through data of PMC11344480 (ACS infectious diseases, 2021).

Molecules are shown by their SMILES. Values after ≈ are worked out from the molar mass of the structure shown.

One data set concerns the target NLRP3 inflammasome (Homo sapiens, UniProt Q96P20). Format: cell-based.
Data set [1] in a line: XTT reduction viability assay. Format: cell-based. Conditions: human.
Data set [2] concerns C. albicans. The experiment in a line: Modified MIC50 assay. Conditions: 24 h. Format: cell-based, C. albicans SC5314.
The next data set has as its system C. auris. The experiment in a line: Modified MIC50 assay. Conditions: Candidozyma auris, 24 h. Format: cell-based.
Another data set relates to C. dubliniensis. The experiment in a line: Modified MIC50 assay. Conditions: Candida dubliniensis, 24 h. Format: cell-based, C. dubliniensis CD36.
A further data set relates to C. tropicalis. The experiment in a line: Modified MIC50 assay. The data set is classed as cell-based, C. tropicalis MYA3404. Conditions: Candida tropicalis, 24 h.
Another data set relates to Candida species. Conditions: via targeting of AHAS; cited from earlier work.
The next data set has as its system C. albicans AHAS. Conditions: cited from earlier work.
For data set [3], the system named is C. albicans. Conditions: mice, prophylactic administration; cited from earlier work.
Data set [4] deals with C. albicans. Conditions: prior work of the laboratory; cited from earlier work.

NLRP3 inflammasome, sequence (Q96P20 whole entry): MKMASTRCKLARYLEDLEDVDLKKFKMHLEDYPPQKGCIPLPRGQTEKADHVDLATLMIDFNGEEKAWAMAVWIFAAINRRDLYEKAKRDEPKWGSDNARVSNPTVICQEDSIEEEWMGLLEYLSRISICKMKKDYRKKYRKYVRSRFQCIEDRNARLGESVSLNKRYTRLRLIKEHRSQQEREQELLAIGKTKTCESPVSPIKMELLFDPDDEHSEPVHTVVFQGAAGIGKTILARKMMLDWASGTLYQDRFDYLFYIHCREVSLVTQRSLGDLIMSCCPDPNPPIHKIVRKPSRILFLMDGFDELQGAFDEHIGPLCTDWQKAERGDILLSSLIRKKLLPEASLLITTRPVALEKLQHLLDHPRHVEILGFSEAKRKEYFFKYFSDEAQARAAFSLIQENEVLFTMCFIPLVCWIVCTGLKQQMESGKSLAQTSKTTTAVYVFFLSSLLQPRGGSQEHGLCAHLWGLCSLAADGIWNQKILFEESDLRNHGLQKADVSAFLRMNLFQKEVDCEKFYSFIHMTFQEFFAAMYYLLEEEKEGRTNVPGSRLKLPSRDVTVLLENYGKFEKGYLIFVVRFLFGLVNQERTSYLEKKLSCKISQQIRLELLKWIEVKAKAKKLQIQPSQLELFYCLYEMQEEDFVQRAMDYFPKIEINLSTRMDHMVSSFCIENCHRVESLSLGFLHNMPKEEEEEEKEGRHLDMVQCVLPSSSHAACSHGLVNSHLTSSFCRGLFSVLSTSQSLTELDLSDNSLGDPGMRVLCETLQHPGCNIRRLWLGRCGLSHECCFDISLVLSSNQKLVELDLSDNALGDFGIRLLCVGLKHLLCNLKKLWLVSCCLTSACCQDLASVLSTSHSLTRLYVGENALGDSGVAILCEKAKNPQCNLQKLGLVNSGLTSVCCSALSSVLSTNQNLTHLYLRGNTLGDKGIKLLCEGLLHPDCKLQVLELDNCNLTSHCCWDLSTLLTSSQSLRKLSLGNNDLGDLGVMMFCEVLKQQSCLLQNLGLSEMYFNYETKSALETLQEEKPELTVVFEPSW

In turn, `CCOC(=O)c1ccccc1S(=O)(=O)NC(=O)Nc1nc(Cl)cc(OC)n1` [Compound 13, chlorimuron ethyl] had an IC50 against NLRP3 inflammasome greater than 50 µM. In [1], the viability at 5 h, 50 µM turned out to be 103 ± 7.3%. The MIC50 against C. albicans [2] (C. albicans, YNB, mean ± SD) is 0.5 ± 0.2 µM (≈ 0.207 µg/mL); in the data set on C. albicans [2] (Candida albicans) it was 0.5 µM (≈ 0.207 µg/mL); against C. auris, 0.8 ± 0.3 µM (≈ 0.332 µg/mL); against C. dubliniensis, 1.3 ± 0.7 µM (≈ 0.539 µg/mL); with C. tropicalis, 21.1 ± 3 µM (≈ 8.75 µg/mL). Further, the “growth of the Candida species” value in the data set with Candida species is recorded as “effective at reducing growth”. In addition, in the data set on C. albicans AHAS, the “inhibition of purified C. albicans AHAS protein” value is “potent inhibitors”. In addition, in the data set with C. albicans [3], the “fungal burden in the kidney, spleen, liver, and lungs” value is “significantly reduced fungal burden”. In addition, in the data set on C. albicans [3], the “protection against disseminated C. albicans infection” value was “provided protection”.

With `COc1ccc(Cl)cc1C(=O)NCCc1ccc(S(=O)(=O)NC(=O)NC2CCCCC2)cc1` [glyburide], the “preventing fungal growth or filamentation” value with C. albicans [4] is listed as “completely ineffective”.
